Test system: IGROV1 complex spheroids (HUVEC, MSC), viability % test/control
Assay: Anticancer human tumor IGROV1 cell line growth inhibition [GQUAD];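 also: spheroids exposed to compounds for 7 days before readout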;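 as to viability, T/C: 100% = DMSO vehicle control viability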
Conditions: for IC50: curve of first compound; for viability, T/C: stronger effect = lower value
In short: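 Tumor cells were grown as complex spheroids with HUVEC endothelial cells and mesenchymal stem cells as stroma. G-quadruplex stabilizers were combined with targeted agents over half-log dilutions from near the clinical Cmax, or from 10 microM.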

[1] = second compound 0.0316 µM, first compound 0.0316 µM
[2] = second compound 0.0316 µM, first compound 0.1 µM
[3] = second compound 0.0316 µM, first compound 0.316 µM
[4] = second compound 0.0316 µM, first compound 1 µM
[5] = second compound 0.0316 µM, first compound 3.16 µM
[6] = second compound 0.0316 µM, first compound 10 µM
[7] = second compound 0.1 µM, first compound 0.0316 µM
[8] = second compound 0.1 µM, first compound 0.1 µM
[9] = second compound 0.1 µM, first compound 0.316 µM
[10] = second compound 0.1 µM, first compound 1 µM
[11] = second compound 0.1 µM, first compound 3.16 µM
[12] = second compound 0.1 µM, first compound 10 µM
[13] = second compound 0.316 µM, first compound 0.0316 µM
[14] = second compound 0.316 µM, first compound 0.1 µM
[15] = second compound 0.316 µM, first compound 0.316 µM
[16] = second compound 0.316 µM, first compound 1 µM
[17] = second compound 0.316 µM, first compound 3.16 µM
[18] = second compound 0.316 µM, first compound 10 µM
[19] = second compound 1 µM, first compound 0.0316 µM
[20] = second compound 1 µM, first compound 0.1 µM
[21] = second compound 1 µM, first compound 0.316 µM
[22] = second compound 1 µM, first compound 1 µM
[23] = second compound 1 µM, first compound 3.16 µM
[24] = second compound 1 µM, first compound 10 µM
[25] = second compound 3.16 µM, first compound 0.0316 µM
[26] = second compound 3.16 µM, first compound 0.1 µM
[27] = second compound 3.16 µM, first compound 0.316 µM
[28] = second compound 3.16 µM, first compound 1 µM
[29] = second compound 3.16 µM, first compound 3.16 µM
[30] = second compound 3.16 µM, first compound 10 µM
[31] = second compound 10 µM, first compound 0.0316 µM
[32] = second compound 10 µM, first compound 0.1 µM
[33] = second compound 10 µM, first compound 0.316 µM
[34] = second compound 10 µM, first compound 1 µM
[35] = second compound 10 µM, first compound 3.16 µM
[36] = second compound 10 µM, first compound 10 µM

With CC(=O)O[C@H]1C(=O)[C@@]2(C)[C@H]([C@H](OC(=O)c3ccccc3)[C@]3(O)C[C@H](OC(=O)[C@H](O)[C@@H](NC(=O)c4ccccc4)c4ccccc4)C(C)=C1C3(C)C)[C@]1(OC(C)=O)CO[C@@H]1C[C@@H]2O + CN(C)c1ccc(Nc2c3ccc(NC(=O)CCN4CCCC4)cc3nc3cc(NC(=O)CCN4CCCC4)ccc23)cc1 the IC50 (second compound 0.0316 µM) was under 31.6 nM, the IC50 (second compound 0.1 µM) was under 31.6 nM and the IC50 (second compound 0.316 µM) was under 31.6 nM. For the same compound, the IC50 (second compound 1 µM) was under 31.6 nM, the IC50 (second compound 3.16 µM) was under 31.6 nM and the IC50 (second compound 10 µM) was under 31.6 nM. For the same compound, the viability, T/C [1] was 7.64%, the viability, T/C [2] was 6.24% and the viability, T/C [3] was 6.32%. The viability, T/C [4] was 5.33%, the viability, T/C [5] was 5% and the viability, T/C [6] was 6.24%. It also gave a viability, T/C [7] of 7.68%, a viability, T/C [8] of 5.09% and a viability, T/C [9] of 5.96%. It also gave a viability, T/C [10] of 5.48%, a viability, T/C [11] of 6.36% and a viability, T/C [12] of 6.3%. It also gave a viability, T/C [13] of 8.36%, a viability, T/C [14] of 5.82% and a viability, T/C [15] of 5.8%. For the same compound, the viability, T/C [16] was 5.16%, the viability, T/C [17] was 5.67% and the viability, T/C [18] was 6.87%. It also gave a viability, T/C [19] of 7.67%, a viability, T/C [20] of 6.92% and a viability, T/C [21] of 6.05%. For the same compound, the viability, T/C [22] was 5.19%, the viability, T/C [23] was 6.15% and the viability, T/C [24] was 5.74%. For the same compound, the viability, T/C [25] was 6.2%, the viability, T/C [26] was 8.18% and the viability, T/C [27] was 6.89%. For the same compound, the viability, T/C [28] was 5.22%, the viability, T/C [29] was 6.1% and the viability, T/C [30] was 5.7%. It also gave a viability, T/C [31] of 7.12%, a viability, T/C [32] of 6.03% and a viability, T/C [33] of 5.99%. It also gave a viability, T/C [34] of 4.33%, a viability, T/C [35] of 4.7% and a viability, T/C [36] of 4.57%.

Compound O=C(NO)c1cnc(N2CCN(S(=O)(=O)c3ccc4ccccc4c3)CC2)nc1 + Cc1cnc(CNC(=O)c2c(=O)c3ccc(N4CCCN(C)CC4)nc3n3c2sc2ccccc23)cn1 has an IC50 (second compound 0.0316 µM) of under 31.6 nM, an IC50 (second compound 0.1 µM) of under 31.6 nM and an IC50 (second compound 0.316 µM) of under 31.6 nM. For the same compound, the IC50 (second compound 1 µM) was under 31.6 nM, the IC50 (second compound 3.16 µM) was under 31.6 nM and the IC50 (second compound 10 µM) was under 31.6 nM. It also gave a viability, T/C [1] of 49.6%, a viability, T/C [2] of 21.8% and a viability, T/C [3] of 4.13%. The viability, T/C [4] was 0.2%, the viability, T/C [5] was 0.06% and the viability, T/C [6] was 0.06%. It also gave a viability, T/C [7] of 16.4%, a viability, T/C [8] of 10.6% and a viability, T/C [9] of 2.94%. For the same compound, the viability, T/C [10] was 0.19%, the viability, T/C [11] was 0.06% and the viability, T/C [12] was 0.05%. It also gave a viability, T/C [13] of 11%, a viability, T/C [14] of 9.94% and a viability, T/C [15] of 2.34%. For the same compound, the viability, T/C [16] was 0.05%, the viability, T/C [17] was 0.03% and the viability, T/C [18] was 0.05%. The viability, T/C [19] was 8.18%, the viability, T/C [20] was 8.18% and the viability, T/C [21] was 1.32%. It also gave a viability, T/C [22] of 0.04%, a viability, T/C [23] of 0.03% and a viability, T/C [24] of 0.05%. It also gave a viability, T/C [25] of 5.96%, a viability, T/C [26] of 4.03% and a viability, T/C [27] of 0.06%. The viability, T/C [28] was 0.04%, the viability, T/C [29] was 0.05% and the viability, T/C [30] was 0.06%. The viability, T/C [31] was 6.31%, the viability, T/C [32] was 6.49% and the viability, T/C [33] was 0.09%. For the same compound, the viability, T/C [34] was 0.07%, the viability, T/C [35] was 0.1% and the viability, T/C [36] was 0.1%.

From PubChem BioAssay AID2060486 (Molecular Pharmacology Branch, DTP, NCI, 2025)
